SMILES strings stand for the structures.

T1 sequence (Q96SW2 whole entry, the tested form may be a part, canonical isoform): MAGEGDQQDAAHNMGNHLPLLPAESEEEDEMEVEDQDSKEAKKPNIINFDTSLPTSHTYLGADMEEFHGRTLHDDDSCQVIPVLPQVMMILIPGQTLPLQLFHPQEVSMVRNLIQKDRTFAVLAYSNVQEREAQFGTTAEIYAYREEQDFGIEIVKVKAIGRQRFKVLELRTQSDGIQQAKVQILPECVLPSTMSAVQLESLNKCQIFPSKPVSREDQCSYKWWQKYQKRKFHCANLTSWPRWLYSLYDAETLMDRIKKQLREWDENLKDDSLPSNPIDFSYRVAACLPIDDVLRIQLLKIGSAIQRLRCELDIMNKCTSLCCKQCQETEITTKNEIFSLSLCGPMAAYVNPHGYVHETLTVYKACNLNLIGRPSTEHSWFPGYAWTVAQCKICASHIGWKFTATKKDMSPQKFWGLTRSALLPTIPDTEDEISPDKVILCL
T1 sequence (Q9UJQ4 whole entry partner, the tested form may be a part, canonical isoform): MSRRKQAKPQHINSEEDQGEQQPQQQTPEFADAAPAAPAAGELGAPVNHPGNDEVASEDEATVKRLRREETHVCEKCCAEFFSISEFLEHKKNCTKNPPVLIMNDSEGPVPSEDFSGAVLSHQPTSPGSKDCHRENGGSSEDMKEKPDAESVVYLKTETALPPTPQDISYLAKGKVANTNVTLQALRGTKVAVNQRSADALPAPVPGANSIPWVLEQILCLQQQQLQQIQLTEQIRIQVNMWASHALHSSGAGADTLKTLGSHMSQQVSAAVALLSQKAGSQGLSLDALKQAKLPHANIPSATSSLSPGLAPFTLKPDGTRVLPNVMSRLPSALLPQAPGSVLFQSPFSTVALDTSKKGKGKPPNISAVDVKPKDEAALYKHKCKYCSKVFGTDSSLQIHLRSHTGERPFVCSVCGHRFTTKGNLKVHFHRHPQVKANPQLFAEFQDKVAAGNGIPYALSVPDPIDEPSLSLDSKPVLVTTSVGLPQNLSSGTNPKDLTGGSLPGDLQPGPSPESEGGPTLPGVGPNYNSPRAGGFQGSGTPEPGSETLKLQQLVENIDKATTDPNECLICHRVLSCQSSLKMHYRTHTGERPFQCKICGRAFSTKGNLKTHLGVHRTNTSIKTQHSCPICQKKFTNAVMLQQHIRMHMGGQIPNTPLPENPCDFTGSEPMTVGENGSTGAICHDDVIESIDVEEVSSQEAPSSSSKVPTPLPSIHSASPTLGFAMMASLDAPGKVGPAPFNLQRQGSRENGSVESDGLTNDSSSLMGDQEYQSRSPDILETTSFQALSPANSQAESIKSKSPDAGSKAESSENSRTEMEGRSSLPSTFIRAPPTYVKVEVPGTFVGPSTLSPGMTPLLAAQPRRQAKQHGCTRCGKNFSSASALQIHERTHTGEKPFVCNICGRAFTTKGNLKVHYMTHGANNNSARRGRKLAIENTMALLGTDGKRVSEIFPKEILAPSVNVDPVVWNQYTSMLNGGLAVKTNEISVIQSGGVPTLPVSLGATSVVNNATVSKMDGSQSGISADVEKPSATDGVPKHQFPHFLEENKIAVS
T1 sequence (Q16531 whole entry partner, the tested form may be a part, canonical isoform): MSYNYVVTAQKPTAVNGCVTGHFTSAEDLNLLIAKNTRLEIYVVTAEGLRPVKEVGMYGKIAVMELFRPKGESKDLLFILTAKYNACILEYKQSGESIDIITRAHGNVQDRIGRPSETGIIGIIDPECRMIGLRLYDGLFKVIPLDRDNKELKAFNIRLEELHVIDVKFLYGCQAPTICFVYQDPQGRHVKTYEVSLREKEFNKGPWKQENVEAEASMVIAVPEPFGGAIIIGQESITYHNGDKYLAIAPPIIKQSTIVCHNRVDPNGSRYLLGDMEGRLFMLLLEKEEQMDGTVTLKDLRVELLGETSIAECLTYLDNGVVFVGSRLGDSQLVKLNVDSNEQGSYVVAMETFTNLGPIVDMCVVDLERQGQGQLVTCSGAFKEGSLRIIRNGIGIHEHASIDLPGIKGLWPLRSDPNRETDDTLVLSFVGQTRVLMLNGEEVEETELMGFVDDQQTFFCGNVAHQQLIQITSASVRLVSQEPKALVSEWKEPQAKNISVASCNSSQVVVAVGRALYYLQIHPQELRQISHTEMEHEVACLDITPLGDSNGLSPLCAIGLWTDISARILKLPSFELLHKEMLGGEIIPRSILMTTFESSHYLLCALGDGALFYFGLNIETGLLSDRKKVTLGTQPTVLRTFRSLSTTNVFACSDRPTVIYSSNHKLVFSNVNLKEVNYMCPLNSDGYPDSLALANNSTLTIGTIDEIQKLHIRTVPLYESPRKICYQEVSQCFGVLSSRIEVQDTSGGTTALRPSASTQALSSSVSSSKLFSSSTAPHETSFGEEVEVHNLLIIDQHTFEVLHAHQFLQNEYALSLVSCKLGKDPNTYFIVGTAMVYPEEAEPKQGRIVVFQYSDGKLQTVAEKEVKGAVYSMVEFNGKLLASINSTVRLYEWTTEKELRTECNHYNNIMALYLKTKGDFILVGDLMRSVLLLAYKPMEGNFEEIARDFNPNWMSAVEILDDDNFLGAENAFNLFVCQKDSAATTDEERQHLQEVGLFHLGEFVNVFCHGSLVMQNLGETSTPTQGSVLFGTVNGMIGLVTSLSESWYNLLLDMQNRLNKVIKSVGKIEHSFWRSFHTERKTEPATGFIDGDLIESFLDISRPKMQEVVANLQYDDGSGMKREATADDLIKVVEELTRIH

The first assay has as its target T1, SALL4 recruitment to CRBN (Homo sapiens, UniProt Q96SW2).
T1 construct: Full size proteins were fused for each of the target proteins tested, except in the case of IKZF1 where isoform 7 was used; expressed in transfected cells; host or cells: HEK293T
The assay can be described thus: Recruitment Assay (MAPPIT-like): SALL4 recruitment to CRBN. Format: cell-based. The note with it: HEK293T cells; pSEL-SALL4+pMG1-CRBN; luciferase 24 hours after treatment; read-out: EC50_SALL4. The method, then:
(§1) In this experimental set-up, cells were transfected with a construct encoding a CRBN-fusion protein and another one encoding a substrate-fusion protein. Test compound activity was assessed with increasing concentrations of test compounds (dose-response studies) to monitor the ability to promote CRBN-ligand-induced protein interaction.
(§2) Full size proteins were fused for each of the target proteins tested, except in the case of IKZF1 where isoform 7 was used. For the study, the following were used: IKZF1 recruitment: pSEL-CRBN+pMG1-IKZF1(isoform 7); ASS1 recruitment: pSEL-CRBN+pMG1-ASS1. SALL4 recruitment: pSEL-SALL4+pMG1-CRBN. […] Luciferase activity was measured 24 hours after test compound treatment using the Luciferase Assay System kit (PROMEGA, Madison, Wis.) with an Ensight plate reader (PERKIN ELMER LIFE SCIENCES, Waltham, Mass.). Data points depicted fold induction of the average luciferase activity of triplicate samples from EPO+test compound treated cells versus EPO only treated cells. Error bars represent standard deviations. Curves were fit using 4-parameter nonlinear regression in […] PRISM software.
With `CC(C)OC1c2ccccc2C(=O)N1C1CCC(=O)NC1=O` (centres unmarked) [3-(1-isopropoxy-3-oxo-isoindolin-2-yl)piperidine-2,6-dione], the EC50 was 2700 nM.

`Cc1nc2ccc(C#N)c(N)c2c(=O)n1C1CCC(=O)NC1=O` (centres unmarked) [C10001, 5-amino-3-(2,6-dioxo-3-piperidyl)-2-methyl-4-oxo-quinazoline-6-carbonitrile]: the EC50 was determined as 1250 nM.

For the molecule `O=C1CCC(N2C(=O)c3ccccc3C2NCc2ccccc2)C(=O)N1` (centres unmarked) [C10239, 3-[1-(benzylamino)-3-oxo-isoindolin-2-yl]piperidine-2,6-dione], the EC50 stood at 1160 nM.

For the next assay, the system named is IKZF1, ASS1 and SALL4 recruitment to CRBN. The assay can be described thus: Recruitment assessment: recruitment of any tested substrate from among IKZF1, ASS1 and SALL4. Format: cell-based. The note with it: any tested substrate at any tested compound concentration. The method, then:
as §1, §2
Turning to `CC(C)OC1c2ccccc2C(=O)N1C1CCC(=O)NC1=O` (centres unmarked) [3-(1-isopropoxy-3-oxo-isoindolin-2-yl)piperidine-2,6-dione], the “Recruitment Assessment” value is listed as “TRUE”. Same read-out and setting: the entry for `Cc1nc2ccc(C#N)c(N)c2c(=O)n1C1CCC(=O)NC1=O` (centres unmarked) [C10001, 5-amino-3-(2,6-dioxo-3-piperidyl)-2-methyl-4-oxo-quinazoline-6-carbonitrile] is “TRUE”; for `O=C1CCC(N2C(=O)c3ccccc3C2NCc2ccccc2)C(=O)N1` (centres unmarked) [C10239, 3-[1-(benzylamino)-3-oxo-isoindolin-2-yl]piperidine-2,6-dione] it is “TRUE”. With `N#Cc1ccc(Nc2ccc3c(c2)C(=O)N(C2CCC(=O)NC2=O)C3)nn1` (centres unmarked) [C80389, 6-[[2-(2,6-dioxo-3-piperidyl)-3-oxo-isoindolin-5-yl]amino]pyridazine-3-carbonitrile], the “Recruitment Assessment” value was “FALSE”. The same measure, in the same setting: the result for `Cc1cc2[nH]cnc(Nc3ccc4c(c3)C(=O)N(C3CCC(=O)NC3=O)C4)c-2n1` (centres unmarked) [C80390, 3-[6-[(6-methylpyrrolo[3,2-d]pyrimidin-4-yl)ammo]-1-oxo-isoindolin-2-yl]piperidine-2,6-dione] reads “TRUE”; that for `O=C1CCC(N2Cc3ccc(NC(=O)c4ccc5ccccc5n4)cc3C2=O)C(=O)N1` (centres unmarked) [C80392, N-[2-(2,6-dioxo-3-piperidyl)-3-oxo-isoindolin-5-yl]quinoline-2-carboxamide], “FALSE”.

For `O=C1CCC(N2Cc3ccc(NC(=O)c4ccc5cnccc5n4)cc3C2=O)C(=O)N1` (centres unmarked) [C80393, N-[2-(2,6-dioxo-3-piperidyl)-3-oxo-isoindolin-5-yl]-1,6-naphthyridine-2-carboxamide], the “Recruitment Assessment” value is reported as “FALSE”. On the same count and under the same terms, the result for `O=C1CCC(N2Cc3ccc(NC(=O)C4=C5C=CN=C5N=CC4)cc3C2=O)C(=O)N1` (centres unmarked) [C80395, N-[2-(2,6-dioxo-3-piperidyl)-3-oxo-isoindolin-5-yl]-5H-pyrrolo [2,3-b]pyridine-4-carboxamide] reads “TRUE”; that for `NC(=O)CNc1ccc2c(c1)C(=O)N(C1CCC(=O)NC1=O)C2` (centres unmarked) [C84961, 2-[[2-(2,6-dioxo-3-piperidyl)-3-oxo-isoindolin-5-yl]amino]acetamide], “FALSE”; that for `O=C1CCC(N2Cc3ccc(NCC(=O)NC4CC4)cc3C2=O)C(=O)N1` (centres unmarked) [C84963, N-cyclopropyl-2-[[2-(2,6-dioxo-3-piperidyl)-3-oxo-isoindolin-5-yl]amino]acetamide], “FALSE”. The same measure, in the same setting: the result for `CN(C)C(=O)CNc1ccc2c(c1)C(=O)N(C1CCC(=O)NC1=O)C2` (centres unmarked) [C84964, 2-[[2-(2,6-dioxo-3-piperidyl)-3-oxo-isoindolin-5-yl]amino]-N,N-dimethyl-acetamide] reads “FALSE”. Same read-out and setting: the result for `O=C(CNc1ccc2c(c1)C(=O)N(C1CCC(=O)NC1=O)C2)NCc1ccccc1` (centres unmarked) [C84966, N-benzyl-2-[[2-(2,6-dioxo-3-piperidyl)-3-oxo-isoindolin-5-yl]amino]acetaimde] reads “FALSE”; that for `CC(=O)NCC(=O)Nc1ccc2c(c1)C(=O)N(C1CCC(=O)NC1=O)C2` (centres unmarked) [C84967, 2-acetamido-N-[2-(2,6-dioxo-3-piperidyl)-3-oxo-isoindolin-5-yl]acetamide], “TRUE”.

Consider `O=C1CCC(N2Cc3ccc(N4CCNC4=O)cc3C2=O)C(=O)N1` (centres unmarked) [C84971, 3-[1-oxo-6-(2-oxoimidazolidin-1-yl)isoindolin-2-yl]piperidine-2,6-dione], for which the “Recruitment Assessment” value was “FALSE”.

Consider `O=C1CCC(N2Cc3ccc(NCC(=O)N4CCc5ccccc5C4)cc3C2=O)C(=O)N1` (centres unmarked) [C95329, 3-[6-[[2-(3,4-dihydro-1H-isoquinolin-2-yl)-2-oxo-ethyl]amino]-1-oxo-isoindolin-2-yl]piperidine-2,6-], for which the “Recruitment Assessment” value is “FALSE”. Same read-out and setting: the entry for `O=C1CCC(N2Cc3ccc(NCC(=O)N4Cc5ccccc5C4)cc3C2=O)C(=O)N1` (centres unmarked) [C95330, 3-[6-[(2-isoindolin-2-yl-2-oxo-ethyl)amino]-1-oxo-isoindolin-2-yl] piperidine-2,6-dione] is “FALSE”; for `CN(Cc1cnn(C)c1)C(=O)CNc1ccc2c(c1)C(=O)N(C1CCC(=O)NC1=O)C2` (centres unmarked) [C95333] it is “FALSE”; for `O=C1CCC(N2Cc3ccc(NCC(=O)N4CC5COCC5C4)cc3C2=O)C(=O)N1` (centres unmarked) [C95334, 3-[6-[[2-(1,3,3a,4,6,6a-hexahydrofuro[3,4-c]pyrrol-5-yl)-2-oxo-ethyl]amino]-1-oxo-isoindolin-2-yl]piperidine-2.6-dione] it is “FALSE”.

As for `CC1Cc2ccccc2N1C(=O)CNc1ccc2c(c1)C(=O)N(C1CCC(=O)NC1=O)C2` (centres unmarked) [C95336, 3-[6-[[2-(2-methylindolin-1-yl)-2-oxo-ethyl]amino]-1-oxo-isoindolin-2-yl]piperidine-2,6-dione], the “Recruitment Assessment” value was “FALSE”.

As to `CN(CC1CC1)C(=O)CNc1ccc2c(c1)C(=O)N(C1CCC(=O)NC1=O)C2` (centres unmarked) [C95338, N-(cyclopropylmethyl)-2-[[2-(2,6-dioxo-3-piperidyl)-3-oxo-isoindolin-5-yl]amino]-N-methyl-acetamide], the “Recruitment Assessment” value is “FALSE”. Same read-out and setting: the entry for `C=CCC1c2ccccc2C(=O)N1C1CCC(=O)NC1=O` (centres unmarked) [C96413, 3-(1-allyl-3-oxo-isoindolin-2-yl)piperidine-2,6-dione] is “FALSE”. Same read-out and setting: the result for `CN(C)c1ccc2c(c1)C(=O)N(C1CCC(=O)NC1=O)C2` (centres unmarked) [C96622, 3-[6-(dimethylamino)-1-oxo-isoindolin-2-yl]piperidine-2,6-dione] reads “FALSE”; that for `CC(C)(C)OC(=O)CC1c2ccccc2C(=O)N1C1CCC(=O)NC1=O` (centres unmarked) [C98053, t-butyl 2-[2-(2,6-dioxo-3-piperidyl)-3-oxo-isoindolin-1-yl]acetate], “FALSE”. Regarding `O=C1CC=CC(C(=O)NC2CCC(=O)NC2=O)=N1` (centres unmarked) [C98696, N-(2,6-dioxo-3-piperidyl)-2-oxo-3H-pyridine-6-carboxamide], the “Recruitment Assessment” value is listed as “FALSE”. Same read-out and setting: the entry for `O=C1CCC(N2Cc3cccc([N+](=O)[O-])c3C2=O)C(=O)N1` (centres unmarked) [C99884, 3-(7-nitro-1-oxo-isoindolin-2-yl)piperidine-2,6-dione] is “FALSE”.

`Cc1nc2cccc(N)c2c(=O)n1C1CCC(=O)NC1=O` (centres unmarked) [CC-122, 3-(5-amino-2-methyl-4-oxo-quinazolin-3-yl)piperidine-2,6-dione, reference compound]: the “Recruitment Assessment” value is “TRUE”.

`O=C1CC[C@H](N2Cc3c(OCc4ccc(CN5CCOCC5)cc4)cccc3C2=O)C(=O)N1` [CC-220, (3S)-3-[4-[[4-(morpholinomethyl)phenyl]methoxy]-1-oxo-isoindolin-2-yl]piperidine-2,6-dione, reference compound]: the “Recruitment Assessment” value was “TRUE”. On the same count and under the same terms, the result for `Nc1cccc2c1C(=O)N(C1CCC(=O)NC1=O)C2=O` (centres unmarked) [POM, 4-amino-2-(2,6-dioxo-3-piperidyl)isoindoline-1,3-dione, reference compound] reads “TRUE”; that for `O=C1CCC(N2C(=O)c3ccccc3C2=O)C(=O)N1` (centres unmarked) [THL, Thalidomide, reference compound], “TRUE”.
